Legend:
Assay in all cases: relative viability (nuclei count vs DMSO), 5 days (fraction); higher = more cells survive
Seliciclib = compound: CC[C@H](CO)Nc1nc(NCc2ccccc2)c2ncn(C(C)C)c2n1 [Seliciclib]
Method in brief: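 Nuclei counted with MetaXpress define viability as the ratio of treated to vehicle wells, given as a median across plates. The lung cancer cell lines were in 1536-well plates, pinned with five √10-spaced library-drug doses and imaged at 4× after 5 days and Hoechst staining. Plates passed with control CV below 25% and at least one doubling.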

Seliciclib + Palbociclib = compound: CC[C@H](CO)Nc1nc(NCc2ccccc2)c2ncn(C(C)C)c2n1 [Seliciclib] + CC(=O)c1c(C)c2cnc(Nc3ccc(N4CCNCC4)cn3)nc2n(C2CCCC2)c1=O [Palbociclib] (partner 0.5 µM)
Method in brief: (§1)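 A single step with final 0.05% Triton X-100, 1% formaldehyde and 1 ug/ml Hoechst fixed the cells and stained nuclei 5 days after treatment. Lung cancer cell lines in 1536-well plates had been treated by pin tool the day after seeding with one drug alone or a fixed anchor-drug dose plus five library-drug doses (not always all listed) in √10 steps, and nuclei were counted on 4× images. Relative viability is the ratio of nuclei in treated wells to nuclei in vehicle wells, taken as the median of duplicate plates.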

Seliciclib + Foretinib = compound: CC[C@H](CO)Nc1nc(NCc2ccccc2)c2ncn(C(C)C)c2n1 [Seliciclib] + COc1cc2c(Oc3ccc(NC(=O)C4(C(=O)Nc5ccc(F)cc5)CC4)cc3F)ccnc2cc1OCCCN1CCOCC1 [Foretinib] (partner 0.25 µM)
Method in brief: as §1

Seliciclib + OSI-027 = compound: CC[C@H](CO)Nc1nc(NCc2ccccc2)c2ncn(C(C)C)c2n1 [Seliciclib] + COc1cccc2cc(-c3nc([C@H]4CC[C@H](C(=O)O)CC4)n4ncnc(N)c34)[nH]c12 [OSI-027] (partner 0.5 µM)
Method in brief: as §1

Cell Line	relative viability (Seliciclib; 0.08 µM)	relative viability (Seliciclib; 0.253 µM)	relative viability (Seliciclib; 0.8 µM)	relative viability (Seliciclib; 2.53 µM)	relative viability (Seliciclib; 8 µM)	relative viability (Seliciclib + Palbociclib; first compound 0.253 µM)	relative viability (Seliciclib + Palbociclib; first compound 0.8 µM)	relative viability (Seliciclib + Palbociclib; first compound 2.53 µM)	relative viability (Seliciclib + Palbociclib; first compound 8 µM)	relative viability (Seliciclib + Foretinib; first compound 0.08 µM)	relative viability (Seliciclib + Foretinib; first compound 0.253 µM)	relative viability (Seliciclib + Foretinib; first compound 0.8 µM)	relative viability (Seliciclib + Foretinib; first compound 2.53 µM)	relative viability (Seliciclib + Foretinib; first compound 8 µM)	relative viability (Seliciclib + OSI-027; first compound 0.08 µM)	relative viability (Seliciclib + OSI-027; first compound 0.253 µM)	relative viability (Seliciclib + OSI-027; first compound 0.8 µM)	relative viability (Seliciclib + OSI-027; first compound 2.53 µM)	relative viability (Seliciclib + OSI-027; first compound 8 µM)	relative viability (Seliciclib + Palbociclib; first compound 0.08 µM)
LOU-NH91	0.789	0.916	0.919	0.85	0.723	0.56	0.513	0.492	0.466	0.9	0.904	0.885	0.905	0.739	0.741	0.693	0.674	0.592	0.644	
LU99A	0.962	0.836	0.953	0.69	0.775	0.332	0.357	0.318	0.275	0.83	0.532	0.825	0.717	0.517	0.286	0.265	0.323	0.221	0.323	0.378
LXF-289	0.983	1.2	0.972	1.02	0.91	0.677	0.59	0.543	0.501	0.95	1.16	0.973	0.943	0.86	0.781	0.667	0.769	0.421	0.762	0.561
NCI-H23	1.01	0.81	0.991	0.449	0.565	0.49	0.416	0.335	0.258	0.977	1.09	0.96	0.88	0.592	0.645	0.408	0.652	0.267	0.505	0.548
NCI-H596	1.01		0.948	0.991	0.872					0.849		0.843	0.68	0.65	0.784		0.607	0.812	0.657	
NCI-H1299	0.959	1.12	1.03	1.02	1.03					1.11	1.2	1.08	1.07	1.09						
NCI-H1563	1.03	0.872	1.06	0.833	0.897					0.922	0.803	0.932	0.941	0.86	0.766	0.709	0.725	0.747	0.792	
NCI-H1648	0.922	1.11	1.18	0.721	0.704	0.332	0.308	0.231	0.169						0.273	0.313	0.281	0.251	0.259	0.259
NCI-H1703	0.947	0.905	1.04	0.951	0.965					0.352	0.362	0.323	0.298	0.342						
NCI-H1792	0.938	0.939	0.944		0.791	0.717	0.613		0.566						0.67	0.769	0.73		0.64	0.655

From the supplement of paper PMC10307832
